Test results as given in patent US12268674B2, “Mi-2β inhibitor as an immunotherapy agent” (BioVentures, LLC, priority 2021, dated 2025).

Target: T1, CLPB (Homo sapiens, UniProt Q9H078)
T1 construct: endogenous in cells; host or cells: A375 cell lysate
Assay: ATPase profile (ATP acyl phosphate probe)
Type: binding
Conditions: SEQ ID NO: 58, ATP BS

T1 sequence (Q9H078 127-707 limits assumed): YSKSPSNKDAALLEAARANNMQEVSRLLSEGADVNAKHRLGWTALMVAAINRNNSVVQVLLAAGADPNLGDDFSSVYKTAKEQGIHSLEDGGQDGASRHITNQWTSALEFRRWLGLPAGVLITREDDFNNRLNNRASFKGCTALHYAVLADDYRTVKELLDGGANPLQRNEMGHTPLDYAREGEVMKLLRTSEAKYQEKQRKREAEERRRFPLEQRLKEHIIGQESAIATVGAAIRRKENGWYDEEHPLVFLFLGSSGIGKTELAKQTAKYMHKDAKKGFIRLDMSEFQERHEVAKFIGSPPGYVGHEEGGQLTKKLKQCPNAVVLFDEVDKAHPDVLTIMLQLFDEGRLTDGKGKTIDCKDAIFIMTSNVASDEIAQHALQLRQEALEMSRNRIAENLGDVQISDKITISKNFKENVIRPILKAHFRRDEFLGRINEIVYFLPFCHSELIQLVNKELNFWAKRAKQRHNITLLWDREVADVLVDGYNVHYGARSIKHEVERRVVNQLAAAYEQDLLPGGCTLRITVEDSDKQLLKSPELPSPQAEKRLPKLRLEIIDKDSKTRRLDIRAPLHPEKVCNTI

Structure (SMILES): Cn1c(=O)[nH]c2ccc(-c3cccc(C(=O)NC4CCn5ccnc5C4)c3)cc21 (stereo not shown) [Z36-MP5, 3-(3-methyl-2-oxo-2,3-dihydro-1H-benzo[d]imidazol-5-yl)-N-(5,6,7,8-tetrahydroimidazo[1,2-a]pyridin-7-yl)benzamide]
- Inhibition (%) by 1 μM Z36-MP5: −9.00%
